# In article PMC7482066, “Unstable Mechanisms of Resistance to Inhibitors of Escherichia coli Lipoprotein Signal Peptidase” (mBio, 2020):
# “Also recorded” adds a separate entry of the source.
# Key:
# [1] = system: A. baumannii 17978; assay: MIC; type: cell-based; conditions: A. baumannii ATCC 17978; in words
# Procedure: (§1) MICs of compounds in each strain were determined in cation-adjusted Mueller-Hinton II (MHII) broth or MHII agar according to the Clinical and Laboratory Standards Institute protocol (CLSI 2006). To measure the effect of protein binding on activity, MIC assays were performed in the presence of 50% heat-inactivated human serum. The serum killing assay was performed as described previously ([43]). FOR assays and growth on plates containing G0790 were always performed on MHII agarose plates.
# [2] = system: E. coli CFT073 imp4213; assay: MIC; type: cell-based; conditions: in words
# Procedure: as §1
# [3] = system: E. coli CFT073 Δlpp; assay: MIC; type: cell-based
# Procedure: as §1
# [4] = system: E. coli CFT073(pBADlspA); assay: MIC; type: cell-based; conditions: in words
# Procedure: as §1
# [5] = system: E. coli MG1655 ΔtolC; assay: MIC; type: cell-based; conditions: E. coli MG1655 WT vs MG1655 ΔtolC
# Procedure: as §1
# [6] = system: S. aureus USA300; assay: MIC; type: cell-based; conditions: in words
# Procedure: as §1
# [7] = system: G0790-resistant E. coli CFT073; assay: MIC against G0790-resistant CFT073 strains; type: cell-based
# Procedure: as §1
# Frequencies of resistance (FORs) of G0790 were determined for E. coli CFT073, E. cloacae (ATCC 13047), and K. pneumoniae (ATCC 700603) as previously published ([70]). To determine the FOR, 3 to 4 colonies of the strain to be tested were picked from a fresh plate and diluted to an optical density at 600 nm (OD600) of 0.00001 in 1 ml of cation-adjusted MHBII. Ten independent 5-ml cultures in MHBII were prepared by inoculating 5 μl (approximately 1 × 10^3 CFU) and incubated at 37°C for 18 h. The bacteria were pelleted by centrifugation at 4000 × g at 4°C for 15 min and resuspended in 0.5 ml fresh MHBII. Two hundred fifty microliters of the bacterial suspension was plated evenly on MHII agarose plates containing globomycin or G0790 at a final concentration of 4× and 8× MIC. In parallel, CFU from each independent culture was measured by spotting 10-fold serial dilutions on MHII agar plates and incubated at 37°C for 18 h. Colonies were counted at days 1, 2, and 3 postinoculation. FOR was calculated as the ratio of the total number of resistant colonies relative to the total CFU plated. For strains that had no resistant colonies growing on plates, the p0 method was used to calculate the FOR (FOR = m/total CFU plated, where m = −ln p0 and p0 is the proportion of cultures with no mutants; 0.7 ≥ p0 ≥ 0.1), as described previously ([71]). Colonies were picked and resuspended in 30 μl MHBII broth medium, and 10 μl was plated on an MHII agar plate containing G0790 to be used to determine the MIC. Of the remaining 20 μl, half was used to inoculate 1.5 ml MHBII broth medium containing G0790 and grown at 37°C for 18 h to generate cell lysates for Western blot analysis, isolate genomic DNA (gDNA) for whole-genome sequencing, and for frozen glycerol stocks.
# [8] = system: G0790-resistant CFT073 Δlpp; assay: MIC against G0790-resistant CFT073 Δlpp strains; type: cell-based, E. coli; conditions: non-lspA_GA
# Procedure: as §1
# Frequencies of resistance (FORs) of G0790 were determined for E. coli CFT073, E. cloacae (ATCC 13047), and K. pneumoniae (ATCC 700603) as previously published ([70]). To determine the FOR, 3 to 4 colonies of the strain to be tested were picked from a fresh plate and diluted to an optical density at 600 nm (OD600) of 0.00001 in 1 ml of cation-adjusted MHBII. Ten independent 5-ml cultures in MHBII were prepared by inoculating 5 μl (approximately 1 × 10^3 CFU) and incubated at 37°C for 18 h. […] In parallel, CFU from each independent culture was measured by spotting 10-fold serial dilutions on MHII agar plates and incubated at 37°C for 18 h. Colonies were counted at days 1, 2, and 3 postinoculation. FOR was calculated as the ratio of the total number of resistant colonies relative to the total CFU plated. […]
# [9] = system: G0790-resistant E. coli CFT073; assay: Population analysis profile (heteroresistance); type: cell-based; conditions: MHII agarose, 18 h, 37°C
# Procedure: The population analysis profiles of G0790 heteroresistant subpopulations were determined according to a method described previously ([79]). Briefly, three independent cultures for each G0790-resistant mutant strain were grown overnight at 37°C in MHBII containing G0790 at sub-MICs to maintain selective pressure. Five microliters or 10-fold serial dilution (10^−1 to 10^−7) in duplicates for each culture were transferred to MHII agarose plates or MHII agarose plates containing a range of G0790 concentrations (100, 75, 50, 37.5, 25, 12.5, 6.25, 3.125, 1.56, 0.8, and 0.4 μM). CFU were enumerated after incubation at 37°C for 18 h. Heteroresistance was defined using the criteria published by El-Halfawy and colleagues, which states there should be a >8-fold difference between the highest noninhibitory concentration and the highest inhibitory concentration ([2], [80]).
# [10] = system: E. coli CFT073; assay: Bactericidal activity, CFU over time; type: cell-based; conditions: G0790 at 2× MIC, two independent experiments in duplicates
# [11] = system: E. coli CFT073; assay: Electron microscopy / live-cell imaging of morphology; type: cell-based; conditions: CFT073, 2× MIC, 1 h (EM)
# Procedure: Electron microscopy was performed as previously described ([61]). […] Cells were immediately placed between a coverslip and a 1% MHII agarose pad containing 12.4 μM G0790 and 10 μg/ml gentamicin for imaging. Cells were maintained at 37°C during imaging with a stage-top chamber (Okolab Inc.). Cells were imaged on a Nikon Eclipse Ti inverted confocal microscope (Nikon Instruments Inc.) coupled with an UltraVIEW VoX (PerkinElmer Inc.) and a 100× (numerical aperture [NA] 1.40) oil-immersion lens objective. Images were captured at various times using an ORCA-Flash 4.0 CMOS camera (Hamamatsu Photonics), collected using Volocity software (Quorum Technologies), and processed using Fiji ([66]).
# [12] = system: G0790-resistant CFT073; assay: MIC after in vitro passaging of G0790-resistant strains; type: cell-based, E. coli; conditions: in words
# Procedure: This bacterial culture is referred to as passage 1 (P1). […] For each passage, MICs were measured and cell lysates and genomic DNA were prepared for Western blot and whole-genome sequencing analyses, respectively.
compound,measurement,setting,value
CCCCCC[C@H]1OC(=O)CNC(=O)[C@H]([C@H](C)O)NC(=O)[C@H](CN)NC(=O)[C@H](C2CCCCC2)NC(=O)[C@H](CCC)N(C)C(=O)[C@@H]1C [G0790],MIC against A. baumannii compared to GBM,[1],modestly decreased MIC
same,Activity against CFT073 imp4213 relative to GBM,[2],more active than GBM
same,MIC,"[3]; CFT073 Δlpp parent, resistant-strain study",19.5 µg/mL
same,Susceptibility of CFT073 Δlpp relative to parental WT,[3]; in words,more resistant to G0790 than the parental WT strain
same,Effect of LspA overexpression or lpp deletion on inhibition of WT CFT073 and CFT073 imp4213,[4],decreased upon LspA overexpression or lpp deletion
same,WT/tolC MIC shift,[5],~31 fold
same,Activity against S. aureus USA300,[6],no increased activity
same,MIC,"[7]; CFT073 4×-R1, ISEc10-istB insertion (3′ of lpp)",19.5 µg/mL
same,MIC,"[7]; CFT073 4×-R2, Lpp p.Asp54fs, Non-lspA_GA",19.5 µg/mL
same,MIC,"[7]; CFT073 4×-R3, lspA_GA",19.5 µg/mL
same,MIC,"[7]; CFT073 4×-R4, lpp deletion, Non-lspA_GA",19.5 µg/mL
same,MIC,"[7]; CFT073 4×-R6, ISEc10-istB insertion (3′ of lpp)",39 µg/mL
same,MIC,"[7]; CFT073 4×-R7, ISEc10-istB insertion (3′ of lpp), Non-lspA_GA",39 µg/mL
same,MIC,"[7]; CFT073 4×-R9, lpp deletion",19.5 µg/mL
same,MIC,"[7]; CFT073 4×-R10, lspA_GA",19.5 µg/mL
same,MIC,"[7]; CFT073 8×-R1, lspA_GA",19.5 µg/mL
same,MIC,"[7]; CFT073 8×-R3, 5′ lpp deletion, Non-lspA_GA",39 µg/mL
same,MIC,"[7]; CFT073 8×-R4, lpp deletion",39 µg/mL
same,MIC,"[7]; CFT073 8×-R5, ISEc10-istB insertion (5′ of lpp), lspA_GA",39 µg/mL
same,MIC,"[7]; CFT073 8×-R6, lpp deletion, Non-lspA_GA",19.5 µg/mL
same,MIC,"[8]; CFT073 Δlpp 4×-R1, lspA_GA",78 µg/mL
same,MIC,"[8]; CFT073 Δlpp 4×-R2, lspA_GA",78 µg/mL
same,Fold difference between highest inhibitory and highest noninhibitory concentration,[9]; CFT073 4×-R3,128 fold
same,Fold difference between highest inhibitory and highest noninhibitory concentration,[9]; CFT073 4×-R10,96 fold
same,Fold difference between highest inhibitory and highest noninhibitory concentration,[9]; CFT073 8×-R5,12 fold
same,Bactericidal activity,[10],bactericidal
same,Cell morphology / membrane accumulation,[11],globular cell morphology and accumulation of bacterial membranes; also recorded: changes in cellular morphology and membrane accumulation
same,"MIC after passaging in the absence of G0790, lspA_GA mutants","[12]; 4×-R3, 4×-R10, 8×-R1, 8×-R5, 3 days",comparable to the MIC of the parental WT strain
same,"Phenotype after passaging in the absence of G0790, 8×-R5",[12]; 8×-R5 (GA and ISEc10-istB insertion upstream of lpp),reverted to the WT phenotype
same,"Resistance after passaging in the absence of G0790, lpp insertion (downstream) or lpp deletion strains",[12]; 3 days,maintained resistance to G0790
